US20100056519A1, “COMPOSITION AND METHOD FOR REDUCING PLATELET ACTIVATION AND FOR THE TREATMENT OF THROMBOTIC EVENTS” (priority 2008, published 2010)

Assays:
Format in all cases: cell-based, human
SPAN-12 = assay: Unstimulated whole blood flow cytometry, SPAN-12; settings: Mean ± SD
Experimental: (§1) The methodology employed was conventional aggregation induced by 5 μM ADP, 1 μg/ml collagen, 10 μM TRAP, whole blood aggregation with 1 μg/ml collagen, Ultegra, and PFA-100 Analyzers, expression of 14 intact, and TRAP-stimulated major receptors by whole blood flow cytometry were utilized to assess platelet activity after preincubation with escalating concentrations of E5555 (20 ng/ml, 50 ng/ml, and 100 ng/ml). The experiments were performed in healthy volunteers, CAD patients treated with ASA, and CAD patients treated with ASA and clopidogrel combination (n=10, for each group).
(§2) An Informed Consent was obtained from all volunteers. Drug users were excluded from data analysis. The study was approved by Quorum Institutional Review Board. All subjects underwent blood sampling after at least 30 minutes of rest and two or more hours of fasting. Blood (28 ml) was drawn between 8 and 10 a.m. in order to avoid any diurnal influence and sampled from an antecubital vein using a 21-gauge butterfly needle containing 3.2% sodium citrate (1:9 volume) after having discarded the first 1.5 ml of free running blood. Four Vacutainer tubes (7.0 ml) were collected for a total of 28 ml of whole blood-citrate mixture from each study participant. Chronologically, blood samples were delivered to the core laboratory facility within 45 minutes after drawing. Then all tubes of blood-citrate mixture were pooled. One portion of pooled blood (5 ml) was kept as an internal control and pretreated with the vehicle. The remaining blood (23 ml) was used for the in vitro exposure to E5555 at concentrations of 20 ng/ml, 50 ng/ml, and 100 ng/ml. […] The platelet aggregation studies, Rapid Analyzers measures, and flow cytometry preparations were initiated within no more than 110 minutes following the blood draw, incubation with the drug, and preparation of the samples.
(§3) Formation of platelet-leukocyte aggregates was assessed by dual labeling with pan-platelet marker (CD151), and then with CD14, the macrophage receptor for endotoxin lipopolysaccharides (PharMingen, and Coulter, San Diego, Calif., USA). The tubes were then covered with aluminum foil and incubated at 37° C. for 40 minutes with gentle rotation. After incubation, samples were immediately analyzed on a Becton Dickinson FACScan flow cytometer. The instrument was set up to measure forward light scatter, and FITC fluorescence. All parameters were collected using four-decade logarithmic amplification. The data was retrieved in list mode files and then analyzed. P selectin was expressed as percent positive cells. Other antigens were expressed as log mean fluorescence intensity.

CD-40L (CD154) = assay: TRAP-stimulated whole blood flow cytometry, CD40-ligand; settings: Mean ± SD
Experimental: as §1, §2, §3
For flow cytometry (TRAP-stimulated) all of the above flow cytometry experiments were identically repeated utilizing prestimulation with 10 μmol/L TRAP for 5 minutes at 37° C. To determine statistics, a Paired Sign Test was used to define significance of differences between vehicle and E5555-treated groups. The Mann-Whitney U test was used to analyze nonparametric data. Normally distributed data were expressed as mean±standard error (m±SE), and skewed data as median (range). All P-values were two sided. All analysis was performed using the SPSS v9.0 program (SPSS Inc., Chicago, Ill.).

PECAM-1 (CD31) = assay: Unstimulated whole blood flow cytometry, PECAM-1; settings: for PECAM-1 (CD31), Mean Fluorescence Intensity: unstimulated, Mean ± SD
Experimental: as §1, §2, §3

GPIIb antigen (CD41) = assay: Unstimulated whole blood flow cytometry, GPIIb antigen; settings: for GPIIb antigen (CD41), Mean Fluorescence Intensity: unstimulated, Mean ± SD
Experimental: as §1, §2, §3

GPIb (CD42b) = assay: Unstimulated whole blood flow cytometry, GPIb; settings: for GPIb (CD42b), Mean Fluorescence Intensity: unstimulated, Mean ± SD
Experimental: as §1, §2, §3

[1] = E5555 100 ng/ml, Patients (ASA + C)
[2] = E5555 100 ng/ml, Patients (ASA)
[3] = E5555 20 ng/ml, Patients (ASA + C)
[4] = E5555 50 ng/ml, Patients (ASA + C)
[5] = overall summary, stimulation not stated

## Br.CCOc1cc2c(c(F)c1OCC)C(=N)N(CC(=O)c1cc(N3CCOCC3)c(OC)c(C(C)(C)C)c1)C2 [E5555, 1-(3-tert-butyl-4-methoxy-5-morpholinophenyl)-2-(5,6-diethoxy-7-fluoro-1-imino-1,3-dihydro-2H-isoindol-2-yl)ethanone hydrobromide]
SPAN-12; E5555 50 ng/ml, Volunteers
  SPAN-12, Mean Fluorescence Intensity: 19 ± 6 MFI
SPAN-12; [1]
  SPAN-12, Mean Fluorescence Intensity: 12 ± 7 MFI
SPAN-12; [2]
  SPAN-12, Mean Fluorescence Intensity: 13 ± 5 MFI
SPAN-12; E5555 100 ng/ml, Volunteers
  SPAN-12, Mean Fluorescence Intensity: 18 ± 6 MFI
CD-40L (CD154); [3]
  CD-40L (CD154), Mean Fluorescence Intensity: 4.9 ± 0.5 MFI
CD-40L (CD154); E5555 20 ng/ml, Patients (ASA)
  CD-40L (CD154), Mean Fluorescence Intensity: 5.2 ± 0.4 MFI
CD-40L (CD154); E5555 20 ng/ml, Volunteers
  CD-40L (CD154), Mean Fluorescence Intensity: 6.3 ± 0.6 MFI
CD-40L (CD154); [4]
  CD-40L (CD154), Mean Fluorescence Intensity: 4.0 ± 0.3 MFI
CD-40L (CD154); E5555 50 ng/ml, Patients (ASA)
  CD-40L (CD154), Mean Fluorescence Intensity: 4.8 ± 0.5 MFI
CD-40L (CD154); E5555 50 ng/ml, Volunteers
  CD-40L (CD154), Mean Fluorescence Intensity: 5.7 ± 0.6 MFI
CD-40L (CD154); [1]
  CD-40L (CD154), Mean Fluorescence Intensity: 4.7 ± 0.5 MFI
CD-40L (CD154); [2]
  CD-40L (CD154), Mean Fluorescence Intensity: 5.0 ± 0.8 MFI
CD-40L (CD154); E5555 100 ng/ml, Volunteers
  CD-40L (CD154), Mean Fluorescence Intensity: 5.7 ± 0.4 MFI
PECAM-1 (CD31); [5]
  PECAM-1 expression, effect in words: significant reduction
PECAM-1 (CD31); [3]
  PECAM-1 (CD31), Mean Fluorescence Intensity: 55 ± 11 MFI
PECAM-1 (CD31); E5555 20 ng/ml, Patients (ASA)
  PECAM-1 (CD31), Mean Fluorescence Intensity: 52 ± 9 MFI
PECAM-1 (CD31); E5555 20 ng/ml, Volunteers
  PECAM-1 (CD31), Mean Fluorescence Intensity: 64 ± 10 MFI
PECAM-1 (CD31); [4]
  PECAM-1 (CD31), Mean Fluorescence Intensity: 51 ± 9 MFI
PECAM-1 (CD31); E5555 50 ng/ml, Patients (ASA)
  PECAM-1 (CD31), Mean Fluorescence Intensity: 53 ± 7 MFI
PECAM-1 (CD31); E5555 50 ng/ml, Volunteers
  PECAM-1 (CD31), Mean Fluorescence Intensity: 60 ± 8 MFI
PECAM-1 (CD31); [1]
  PECAM-1 (CD31), Mean Fluorescence Intensity: 54 ± 8 MFI
PECAM-1 (CD31); [2]
  PECAM-1 (CD31), Mean Fluorescence Intensity: 57 ± 10 MFI
PECAM-1 (CD31); E5555 100 ng/ml, Volunteers
  PECAM-1 (CD31), Mean Fluorescence Intensity: 64 ± 11 MFI
GPIIb antigen (CD41); [5]
  GP IIb/IIIa antigen expression, effect in words: significant reduction
GPIIb antigen (CD41); [3]
  GPIIb antigen (CD41), Mean Fluorescence Intensity: 219 ± 25 MFI
GPIIb antigen (CD41); E5555 20 ng/ml, Patients (ASA)
  GPIIb antigen (CD41), Mean Fluorescence Intensity: 391 ± 44 MFI
GPIIb antigen (CD41); E5555 20 ng/ml, Volunteers
  GPIIb antigen (CD41), Mean Fluorescence Intensity: 423 ± 27 MFI
GPIIb antigen (CD41); [4]
  GPIIb antigen (CD41), Mean Fluorescence Intensity: 240 ± 32 MFI
GPIIb antigen (CD41); E5555 50 ng/ml, Patients (ASA)
  GPIIb antigen (CD41), Mean Fluorescence Intensity: 404 ± 31 MFI
GPIIb antigen (CD41); E5555 50 ng/ml, Volunteers
  GPIIb antigen (CD41), Mean Fluorescence Intensity: 409 ± 25 MFI
GPIIb antigen (CD41); [1]
  GPIIb antigen (CD41), Mean Fluorescence Intensity: 233 ± 30 MFI
GPIIb antigen (CD41); [2]
  GPIIb antigen (CD41), Mean Fluorescence Intensity: 396 ± 42 MFI
GPIIb antigen (CD41); E5555 100 ng/ml, Volunteers
  GPIIb antigen (CD41), Mean Fluorescence Intensity: 416 ± 24 MFI
GPIb (CD42b); [5]
  GPIb expression, effect in words: significant reduction
GPIb (CD42b); [3]
  GPIb (CD42b), Mean Fluorescence Intensity: 103 ± 7 MFI
GPIb (CD42b); E5555 20 ng/ml, Patients (ASA)
  GPIb (CD42b), Mean Fluorescence Intensity: 106 ± 5 MFI
GPIb (CD42b); E5555 20 ng/ml, Volunteers
  GPIb (CD42b), Mean Fluorescence Intensity: 162 ± 19 MFI
GPIb (CD42b); [4]
  GPIb (CD42b), Mean Fluorescence Intensity: 94 ± 12 MFI
GPIb (CD42b); E5555 50 ng/ml, Patients (ASA)
  GPIb (CD42b), Mean Fluorescence Intensity: 109 ± 7 MFI
GPIb (CD42b); E5555 50 ng/ml, Volunteers
  GPIb (CD42b), Mean Fluorescence Intensity: 145 ± 20 MFI
GPIb (CD42b); [1]
  GPIb (CD42b), Mean Fluorescence Intensity: 100 ± 15 MFI
GPIb (CD42b); [2]
  GPIb (CD42b), Mean Fluorescence Intensity: 111 ± 10 MFI
GPIb (CD42b); E5555 100 ng/ml, Volunteers
  GPIb (CD42b), Mean Fluorescence Intensity: 157 ± 16 MFI
